Laboratory results: patent publication US12152174B2, “Adjustably stable adhesive compositions for medical and non-medical uses, and recycling” (THE REGENTS OF THE UNIVERSITY OF CALIFORNIA, priority 2023, dated 2024)

Legend:
[1] = Lap shear tissue adhesion on wet bovine pericardium; conditions: adhesive with 14 mol % L2 vs 7 mol %
Description: An atomized spray was initially chosen, as it allows for quick evaporation of ethanol to increase the concentration of the mixture rapidly and eliminate any undesired flow of the adhesive solution on the tissue surfaces. A solution of L1 and L2 (7 mol %) was prepared and sprayed on two pieces of tissue surfaces (40 μL in 1 cm^2) and the two pieces were immediately brought into contact. After forming the lap joints, they were incubated for 2 minutes in PBS at 37° C. for further curing of the polymer network. The lap shear strength after 2 minutes on wet bovine pericardium tissue was >100 kPa, which was only slightly lower than medical-grade superglue (See FIG. 3A). […] The failure mode analyses of the lap joints was performed by applying N-bromo succinimide to the failed tissue surfaces to visually indicate by charge transfer complexation of disulfide functionality and therefore the presence of adhesive polymer. […] The enhanced lap shear strength at longer incubation time is consistent with the enhanced cohesive strength of the polymer network as observed in the rheology analysis of the wet polymer (see FIG. 2E).
Lap shear tissue adhesion was also performed with L3 on both wet bovine pericardium and pig skin.
To study the effect of stabilizer concentration on tissue adhesion strength, another lap shear test was performed with a higher L2 concentration (14 mol %). […]

[2] = Gelation of ethanolic adhesive precursor solution; assay type: physicochemical; conditions: pure solution at similar concentration, extended periods of time
[3] = Polymerization and depolymerization of ethanolic precursor on exposure to water or aqueous phosphate buffer; assay type: physicochemical; conditions: 400 mg/mL ethanolic solution added to aqueous phosphate buffer
Description: An ethanolic solution of pure α-lipoic acid L1 was prepared at 400 mg/mL and added to an aqueous phosphate buffer. A metastable sticky polymer was obtained, but within a few minutes (<5 min), the sticky polymer converted to a solid monomeric precipitate with no apparent adhesive property.
At any time prior to or after gelation of the precursor solution, exposure to water triggers dithiolane polymerization which can be exploited for the purposes of isolating a polymer adhesive or for adhering objects together. […] We believe α-lipoic acid undergoes self-catalyzed polymerization followed by stabilization with NHS esters. Nonetheless, the aqueous polymerization appears to be less sensitive and extremely fast irrespective of the solution concentrations. We believe that due to the amphiphilic nature of the α-lipoic acid, it undergoes micelle-like self-reorganization in contact with water, which locally concentrates the cyclic backbone to accelerate the polymerization rate. Furthermore, detailed ^1H NMR experiments of diluted ethanolic solution of the mixtures show excellent stability of the NHS esters even at an extended period. Therefore, this opens the possibility of an on-demand aqueous polymerization from a precursor ethanolic solution, which we considered to be advantageous for translation in medical and other underwater applications. […]

[4] = Storage stability of precursor or polymer against polymerization or depolymerization; assay type: physicochemical; conditions: coated and heated at 100° C for 4 hrs under vacuum, no stabilizer
From the text: The self-catalysis of α-lipoic acid takes place by the activation of disulfide with a carboxylic acid. Thus, we hypothesized that introduction of a functional group with higher electron density than disulfide will act as a potential competitor of disulfide, thereby suppressing initiation. […] However, the liquid undergoes ultrafast polymerization when brought into contact with water (FIG. 1) to yield an adhesive polymer. We surmise that due to its higher hydration energy, L4 becomes solvated as it comes in contact with water, leading to disulfide activation by the carboxylic acids. This approach provides an adhesive precursor suitable for spray, brush or injection mode of application. […] The coated PET was heated at 100° C. for 4 hrs under vacuum. The heat created a stable, sticky viscoelastic polymer, showing that the stabilizer molecules are also effective at high temperatures. By comparison, for example, pure α-lipoic acid treated under similar conditions also forms a sticky polymer, but within 2-3 days becomes a solid crystalline spot indicating depolymerization of the polymer. Although a stabilizer is needed in many applications that require a prolonged stability, the poly(asparagusic acid) without the stabilizer is sufficiently stable for some uses. […]

Compound	shear strength at higher stabilizer concentration [1]	gel formation [2]	time until sticky polymer converted to solid monomeric precipitate (depolymerization) [3]	time until sticky polymer becomes solid crystalline spot (depolymerization) [4]
O=C(CCCCC1CCSS1)ON1C(=O)CCC1=O (stereo not shown) [L2, NHS-derivatized lipoic acid]	No significant difference	–	–	–
O=C(O)CCCCC1CCSS1 (stereo not drawn) [L1, α-lipoic acid]	–	did not form a gel	< 5 min	2 to 3 days
